Source: ChEMBL document CHEMBL5584334, “Discovery of a Covalent Inhibitor of Pro-Caspase-1 Zymogen Blocking NLRP3 Inflammasome Activation and Pyroptosis” (J Med Chem, 2024)
Active and inactive are the calls of the source. No cut-off for these calls is given here.

What was measured:
[1] = system: Caspase-1 (Homo sapiens), P29466 [C270A]; test: Binding affinity to recombinant caspase-1 C270A mutant (unknown origin) at 2 uM by SDS-PAGE analysis
[2] = target: Interferon-inducible protein AIM2 (Mus musculus) (UniProt Q91VJ1); test: Inhibition of AIM2 inflammasome activation in mouse BMDMs assessed as reduction in caspase-1 activation at 0.5 to 2 uM primed with LPS for 3 hrs followed by incubation with compound for 30 mins and later stimulated with poly (dA:dT) for 16 hrs; assay type: cell-based; details: BMDM, dose 0.5-2 µM, time 16.5 hrs
[3] = system: J774.A1; test: Inhibition of pyroptosis in mouse J774.A1 cells assessed as reduction in number of propidium iodide positive cells at 0.5 to 2 uM pretreated with LPS for 3 hrs followed by compound addition in presence of nigericin by flow cytometry analysis; assay type: functional, cell-based; details: dose 0.5-2 µM
[4] = Acute toxicity in Kunming mouse assessed as kidney damage at 100 mg/kg, ip administered for 14 days; assay type: organism-based; details: in vivo, 336 h, time 14 day
[5] = target: NACHT, LRR and PYD domains-containing protein 3 (Mus musculus) (UniProt Q8R4B8); test: Inhibition of NLRP3 inflammasome activation in mouse J774.A1 cells assessed as reduction in NLRP3 mRNA expression at 0.5 to 2 uM preincubated for 30 mins followed by LPS stimulation for 24 hrs by RT-qPCR analysis; assay type: cell-based; details: dose 0.5-2 µM, time 24.5 hrs
[6] = Acute toxicity in Kunming mouse assessed as liver damage at 100 mg/kg, ip administered for 14 days; assay type: organism-based; details: in vivo, 336 h, time 14 day
[7] = target: T1, Caspase-7 (Mus musculus) (UniProt P97864); test: Inhibition of cisplatin induced caspase-7 activation in mouse J774.A1 cells at 2 uM preincubated for 30 mins followed by cisplatin addition and incubated overnight; assay type: cell-based
T1 sequence (whole entry): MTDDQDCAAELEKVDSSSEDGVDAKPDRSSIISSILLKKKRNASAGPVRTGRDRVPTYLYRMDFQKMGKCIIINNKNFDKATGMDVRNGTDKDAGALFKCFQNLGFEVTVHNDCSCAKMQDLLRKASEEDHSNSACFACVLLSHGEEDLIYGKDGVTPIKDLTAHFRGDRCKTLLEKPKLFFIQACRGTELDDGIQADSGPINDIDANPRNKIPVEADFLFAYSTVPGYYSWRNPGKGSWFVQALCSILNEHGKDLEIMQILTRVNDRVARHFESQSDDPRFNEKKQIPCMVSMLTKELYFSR

[8] = system: J774.A1; test: Inhibition of NF-kappaB signaling in LPS-stimulated mouse J774.A1 cells at 1 uM preincubated for 30 mins followed by LPS addition and measured after 2 hrs by Western blotting analysis; assay type: cell-based; details: time 2.5 hrs
[9] = system: Mus musculus; test: Anti-inflammatory activity in MSU/C18:0 free fatty acid induced Kunming mouse model of gouty arthritis assessed as effect on ASC expression at 5 to 20 mg/kg, ip preadministered with compound for 30 mins followed by MSU/C18:0 free fatty acid injection and measured after 24 hrs by Western blotting analysis; assay type: functional, organism-based; details: dose 5-20 mg/kg, time 24.5 hrs
[10] = target: NACHT, LRR and PYD domains-containing protein 3 (Homo sapiens) (UniProt Q96P20); test: Inhibition of NLRP3 inflammasome activation in LPS/nigericin stimulated human THP-1 cells assessed as reduction in IL-1beta production at 1 uM pretreated with LPS for 3 hrs followed by compound addition for 30 mins prior to nigericin stimulation for 45 mins by ELISA; assay type: cell-based; details: time 75.0 min
[11] = target: NACHT, LRR and PYD domains-containing protein 3 (Mus musculus) (UniProt Q8R4B8); test: Inhibition of NLRP3 inflammasome activation in LPS/MSU stimulated mouse J774.A1 cells assessed as reduction in IL-1beta production incubated for 4 hrs by ELISA; assay type: cell-based
[12] = system: J774.A1; test: Cytotoxicity against mouse J774.A1 cells at 2 uM incubated for 1 to 12 hrs by CCK-8 method; assay type: toxicity, cell-based; details: j774.a1, 2 µM, time 1-12 hrs
[13] = system: J774.A1; test: Inhibition of pyroptosis in mouse J774.A1 cells assessed as reduction in number of annexin V and PI positive cells pretreated with LPS for 3 hrs followed by compound addition in presence of nigericin by flow cytometry analysis; assay type: functional, cell-based
[14] = system: Caspase-1 (Homo sapiens), P29466 [C285A]; test: Binding affinity to recombinant caspase-1 C285A mutant (unknown origin) at 2 uM by SDS-PAGE analysis
[15] = system: Caspase-1 (Homo sapiens), P29466 [C270A]; test: Inhibition of recombinant caspase-1 C270A mutant (unknown origin) at 100 uM relative to control
[16] = system: Mus musculus; test: Anti-inflammatory activity in LPS/MSU-induced C57BL/6 mouse model of acute peritonitis assessed as reduction in IL-1beta expression at 20 mg/kg, ip preadministered intraperitoneally with compound for 30 mins followed by MSU injection and measured after 6 hrs by ELISA; assay type: functional, organism-based; details: time 6.5 hrs
[17] = system: THP-1; test: Effect on pro-1L-1beta protein expression in LPS/ATP stimulated human THP-1 cells supernatant by Western blotting analysis; assay type: functional, cell-based

Caspase-1 (Homo sapiens), P29466 [C270A], sequence (P29466 whole entry C270A): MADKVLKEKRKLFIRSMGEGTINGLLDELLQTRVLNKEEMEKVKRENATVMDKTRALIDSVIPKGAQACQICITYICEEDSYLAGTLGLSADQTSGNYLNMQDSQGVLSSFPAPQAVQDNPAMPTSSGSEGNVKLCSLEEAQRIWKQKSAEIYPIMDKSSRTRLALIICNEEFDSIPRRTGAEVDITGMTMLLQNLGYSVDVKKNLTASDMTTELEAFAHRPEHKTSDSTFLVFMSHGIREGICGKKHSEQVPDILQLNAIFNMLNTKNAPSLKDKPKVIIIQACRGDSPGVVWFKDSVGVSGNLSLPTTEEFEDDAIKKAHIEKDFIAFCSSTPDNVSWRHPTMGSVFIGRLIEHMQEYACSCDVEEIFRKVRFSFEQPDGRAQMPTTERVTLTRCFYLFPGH
NACHT, LRR and PYD domains-containing protein 3 (Mus musculus), sequence (Q8R4B8 whole entry, the tested form may be a part): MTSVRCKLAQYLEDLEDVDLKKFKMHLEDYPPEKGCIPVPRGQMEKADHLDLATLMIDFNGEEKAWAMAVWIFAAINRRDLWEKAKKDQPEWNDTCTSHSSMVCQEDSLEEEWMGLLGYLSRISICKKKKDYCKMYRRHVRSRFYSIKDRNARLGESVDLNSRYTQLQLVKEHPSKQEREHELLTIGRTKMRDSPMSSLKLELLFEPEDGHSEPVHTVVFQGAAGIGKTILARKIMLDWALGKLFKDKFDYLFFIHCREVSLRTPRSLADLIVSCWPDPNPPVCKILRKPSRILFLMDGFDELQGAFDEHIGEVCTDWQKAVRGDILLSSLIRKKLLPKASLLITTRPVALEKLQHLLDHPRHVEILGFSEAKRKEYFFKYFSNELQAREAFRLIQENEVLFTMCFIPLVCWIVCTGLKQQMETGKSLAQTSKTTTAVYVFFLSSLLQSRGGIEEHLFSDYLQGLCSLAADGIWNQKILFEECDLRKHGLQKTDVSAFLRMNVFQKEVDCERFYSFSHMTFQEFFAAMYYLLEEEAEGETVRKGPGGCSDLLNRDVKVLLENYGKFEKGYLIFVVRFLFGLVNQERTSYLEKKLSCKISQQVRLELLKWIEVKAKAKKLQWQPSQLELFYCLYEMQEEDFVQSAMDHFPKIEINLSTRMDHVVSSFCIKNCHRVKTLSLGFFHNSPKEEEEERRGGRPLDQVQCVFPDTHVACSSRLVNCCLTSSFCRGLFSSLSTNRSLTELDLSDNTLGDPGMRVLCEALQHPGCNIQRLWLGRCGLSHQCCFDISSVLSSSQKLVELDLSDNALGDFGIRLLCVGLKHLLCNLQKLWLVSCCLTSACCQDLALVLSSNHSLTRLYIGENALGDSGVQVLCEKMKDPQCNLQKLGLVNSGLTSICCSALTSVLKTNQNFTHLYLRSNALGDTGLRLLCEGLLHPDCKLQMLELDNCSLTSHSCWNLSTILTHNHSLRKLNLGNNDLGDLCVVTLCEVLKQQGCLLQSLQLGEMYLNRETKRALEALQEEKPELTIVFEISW
Caspase-1 (Homo sapiens), P29466 [C285A], sequence (P29466 whole entry C285A): as the sequence (P29466 whole entry C270A) above, with A270C, C285A counted along it
NACHT, LRR and PYD domains-containing protein 3 (Homo sapiens), sequence (Q96P20 whole entry, the tested form may be a part): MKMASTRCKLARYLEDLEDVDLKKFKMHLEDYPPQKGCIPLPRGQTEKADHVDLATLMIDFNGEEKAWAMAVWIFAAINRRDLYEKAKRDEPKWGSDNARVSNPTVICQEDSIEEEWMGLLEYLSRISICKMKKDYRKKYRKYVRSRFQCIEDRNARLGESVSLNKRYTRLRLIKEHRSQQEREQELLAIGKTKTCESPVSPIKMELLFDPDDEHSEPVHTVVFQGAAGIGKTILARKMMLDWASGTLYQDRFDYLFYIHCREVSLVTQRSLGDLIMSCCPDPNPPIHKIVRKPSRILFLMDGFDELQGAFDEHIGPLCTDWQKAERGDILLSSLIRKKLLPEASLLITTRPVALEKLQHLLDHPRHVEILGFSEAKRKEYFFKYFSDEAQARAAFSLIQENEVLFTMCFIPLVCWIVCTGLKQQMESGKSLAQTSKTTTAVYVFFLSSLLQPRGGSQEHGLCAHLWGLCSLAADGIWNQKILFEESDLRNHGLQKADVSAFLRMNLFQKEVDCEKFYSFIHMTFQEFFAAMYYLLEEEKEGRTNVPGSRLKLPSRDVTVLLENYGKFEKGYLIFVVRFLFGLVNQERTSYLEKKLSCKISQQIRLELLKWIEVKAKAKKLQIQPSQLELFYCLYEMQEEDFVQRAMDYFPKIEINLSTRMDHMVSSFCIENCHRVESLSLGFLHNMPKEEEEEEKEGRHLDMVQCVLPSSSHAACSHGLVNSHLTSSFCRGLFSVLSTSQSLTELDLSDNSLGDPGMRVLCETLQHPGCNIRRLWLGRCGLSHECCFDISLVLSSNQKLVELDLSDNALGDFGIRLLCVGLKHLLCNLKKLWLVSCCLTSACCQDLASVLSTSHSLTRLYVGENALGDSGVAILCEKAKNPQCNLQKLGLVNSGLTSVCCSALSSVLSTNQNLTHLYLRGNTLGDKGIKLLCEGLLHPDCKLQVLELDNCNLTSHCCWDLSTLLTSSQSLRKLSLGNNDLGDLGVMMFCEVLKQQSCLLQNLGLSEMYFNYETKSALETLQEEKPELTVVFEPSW
Interferon-inducible protein AIM2 (Mus musculus), sequence (Q91VJ1 whole entry): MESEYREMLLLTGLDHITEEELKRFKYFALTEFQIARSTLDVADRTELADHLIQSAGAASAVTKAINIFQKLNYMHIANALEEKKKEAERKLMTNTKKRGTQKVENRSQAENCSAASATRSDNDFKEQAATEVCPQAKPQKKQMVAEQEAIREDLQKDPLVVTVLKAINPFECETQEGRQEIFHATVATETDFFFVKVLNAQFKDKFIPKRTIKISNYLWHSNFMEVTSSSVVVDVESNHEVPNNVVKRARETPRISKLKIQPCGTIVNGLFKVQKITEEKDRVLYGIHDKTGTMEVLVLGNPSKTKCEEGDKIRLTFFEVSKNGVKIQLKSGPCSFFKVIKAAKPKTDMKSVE

COc1ccc2c(c1)[C@]1(C=C[C@H](N=C=S)C[C@H]1C(=O)OC(C)(C)C)C(=O)N2C(=O)OCc1ccccc1
Activity [1]: Active | inhibition [2]: Active | inhibition [3]: Active | Activity [4]: Non-Toxic | inhibition [5]: Active | Activity [6]: Non-Toxic | inhibition [7]: inactive | inhibition [8]: Active | Activity [9]: inactive | inhibition [10]: Active | inhibition [11]: Active | Activity [12]: Non-Toxic | inhibition [13]: Active | Activity [14]: inactive | inhibition [15]: inactive | Activity [16]: Active | Activity [17]: inactive
